From patent US20250381163A1, “Chelating Agents for Use in Cancer Therapy” (priority 2022, published 2025)
Entries after “also recorded” stand apart in the source; their conditions may differ.

Experiments:
p53 [1] = assay: p53 folding status in cells (immunoprecipitation with folding antibodies / western blot); assay type: cell-based; conditions: Beas-2B cells incubated with metals in presence or absence of chelator; FIG. 20, 21
Protocol: (§1) Cells were seeded in 6 well plates at 30% cell density. 24 hrs later, medium was replaced with the metal mixtures as indicated. Cells were incubated for 24 hrs and lysed with 100 μl NP-40 lysis buffer (100 mM NaCl 100 mM Tris pH8, 1% NP-40) for 15 min on ice. Cell pellets were discarded in centrifugation (10 min max) and 10% of input was taken for western blot and mixed with 4×SB. The remaining lysate was subjected to immunoprecipitation with p53 Ab240 Ab (1 ul per condition) using 30 μl NP-40 buffer washed goat-anti-mouse magnetic Dynabeads (Thermo Fisher). Lysates and beads were tumbled at 4° C. for 2 hrs and washed 3× with NO-40 buffer. Beads were taken up in 2×SB and together with inputs denatured at 95° C. in a heat block. 8% SDS page gels were used to run all of the samples on western blot. Gels were transferred on nitrocellulose membrane, blocked with milk (TBS-Tween) for 1 hr tumbling and incubated in p53 DO-1 (Santa Cruz Ab, 1:2000) ON at 4° C. The membrane was washed 3× with TBS-tween and secondary Ab (anti-mouse 700, Li-Cor) was used 1:10.000 to incubate the blot for 1 hr at room temperature. The blot was washed with TBS-tween 3× and the signal was measured in a Li-Cor Odyssey. Quantification was measured in the software of Li-Cor and plotted corrected for input levels of each sample.

Beas-2B cells = assay: Resazurin cell survival assay, metal-induced chemoresistance and chelators; assay type: cell-based; conditions: for Reversal of metal-induced chemoresistance to doxorubicin, non-saturating chelator dose: DMPS 40 μM, EDTA 20 μM, FIG. 5
Protocol: (§2) Resazurin cell survival assays were used to determine cell survival upon chemotherapeutic and chelator challenge. 2×10^3 cells were seeded in 100 μl in 96 well plates. 24 hrs later medium was replaced with 90 μl of metal mixtures or control medium for another 24 hrs. Next a combination of chelators and chemotherapy as indicated in the figures was prepared and added as an additional 10 μl to the cells. Cells were then incubated for 72 hr (Beas-2B) or 96 hr (A549 and MCF7). A stock solution of resazurin (Sigma) was made as 880 μM in PBS adjusted to pH 7.8/filtered 0.2 μm and kept for 6 months at 4° C. Medium was replaced with 75 μl of resazurin solution (final concentration 44 μM). Cells were incubated at 37° C. for 3-4 hrs and fluorescence emission was measured at 583 nm with excitation at 555 nm using a spectrophotometer (Beckman). To test the effects of metals on doxorubicin directly, doxorubicin was incubated with metals in solution 24 hrs as a 10× solution, prior to adding to cells, whereas control cells were incubated in metals as described before.
IC50 values were calculated using Graphpad Prism. Error bars represent standard deviation of triplicate measurements.

BxPC-3 cells = assay: Cell survival assay, metal exposure and chelation treatment; assay type: cell-based; conditions: BxPC3 pre-treated with metals 1:128; for Reversal of metal-induced chemoresistance to 5-FU: 150 μM chelator and 5-FU for 72 hrs, FIG. 17; for Effect of chelator on resistance/survival with nab-paclitaxel: 150 μM chelator and nab-paclitaxel for 72 hrs, FIG. 18
Protocol: as §2
Overall, the methods disclosed in the first example were used in the second example as well.

p53 [2] = assay type: biochemical; conditions: Beas-2B lysates with metals 30 min, then chelator 1 hr; naïve and loaded lysates; FIG. 23
WT p53 = assay: p53 folding in transfected Hep3B cells; assay type: cell-based; conditions: Hep3B transfected with WT p53; metals followed by miaDMSA; FIG. 22
Protocol: as §1, with “The membrane was washed 3× with TBS-tween and secondary Ab (anti-mouse 700, Li-Cor) was used 1:10.000 to incubate the blot for 1 hr at room temperature.” left out
(§3) Hep3B and H2177 cells were obtained from ATCC and were maintained in DMEM high Glucose (Invitrogen) and 10% FCS (Gibco) at 37° C. and 5% CO2. […] Cells were subsequently counted and added to 96 well plates for survival assays as previously described. […]

158 mutant p53 = assay: p53 folding in transfected Hep3B cells; assay type: cell-based; conditions: Hep3B transfected with 158 mutant p53; metals followed by miaDMSA; FIG. 22
Protocol: as §1, with “The membrane was washed 3× with TBS-tween and secondary Ab (anti-mouse 700, Li-Cor) was used 1:10.000 to incubate the blot for 1 hr at room temperature.” left out
as §3

MCF7 breast cancer cells = assay: Resazurin cell survival assay, metal-induced chemoresistance and chelators; assay type: cell-based; set-up: dose or concentration left out as unconfirmed; conditions: FIG. 3B
Protocol: as §2

A549 lung cancer cells = assay: as above; assay type: cell-based; set-up: dose or concentration left out as unconfirmed; conditions: FIG. 3C
Protocol: as §2

A549 p53 KO cells = assay: Resazurin cell survival assay in p53 KO clone; assay type: cell-based; conditions: p53 KO clone of A549; DMPS (150 μM); doxorubicin; FIG. 3D
Protocol: A549, MCF7 and Beas-2B cells were obtained from ATCC (https://www.atcc.org). Cells were maintained in DMEM high Glucose (Invitrogen) and 10% FCS (Gibco) at 37° C. and 5% CO2. A549 p53 KO cells were generated using a CRISPR p53 KO construct (pLV-U6g-EPCG with target sequence TCCATTGCTTGG GACGGCAAGG, Sigma). Cell lines were selected for GFP expression using FACS sorting followed by clonal selection in neomycin (600 ng/ml, Sigma).
as §2, with “To test the effects of metals on doxorubicin directly, doxorubicin was incubated with metals in solution 24 hrs as a 10× solution, prior to adding to cells, whereas control cells were incubated in metals as described before.” left out

H2170 cells = assay: Cell survival assay, metal exposure and chelation treatment; assay type: cell-based; conditions: H2170 pre-treated with metals 1:128, then DMPS and doxorubicin for 72 hrs; FIG. 16
Protocol: as §2
Overall, the methods disclosed in the first example were used in the second example as well. […]
as §3

[3] = Beas-2B pre-treated with metals 1:128, then chelator and doxorubicin for 72 hrs, FIG. 14, 15
[4] = metal-loaded Beas-2B, DMPS 150 μM, EDTA 75 μM (equivalent chelation capacity), alone or combined, FIG. 4

Row | Compound | Prevention of metal-induced unfolding of p53 (p53 [1]) | Reversal of metal-induced chemoresistance to doxorubicin (Beas-2B cells; [3]) | Reversal of metal-induced chemoresistance to 5-FU (BxPC-3 cells) | Effect of chelator on resistance/survival with nab-paclitaxel (BxPC-3 cells) | Refolding of unfolded p53 (p53 [2]) | Reversal of metal-induced chemoresistance to doxorubicin, non-saturating chelator dose (Beas-2B cells; alone or combined) | Reversal of metal-induced chemoresistance to doxorubicin (Beas-2B cells; [4]) | other results
1 | O=C(O)C(S)C(S)C(=O)O (centres unmarked) [DMSA, 2,3-dimercaptosuccinic acid] | prevents unfolding | only partially reversed | reversed | reduce survivability |  |  |  | 
2 | CC(C)CCOC(=O)[C@@H](S)[C@@H](S)C(=O)O [miaDMSA, monoisoamylDMSA] |  | highly potent chelator; also recorded: completely reversed | reversed | reduce survivability; also recorded: reduction of resistance | clearly able to refold some of the p53 |  |  | Prevention of metal-induced unfolding of p53 (WT p53): prevented or reduced; Prevention of metal-induced unfolding of p53 (158 mutant p53): prevented or reduced
3 | O=S(=O)(O)CC(S)CS (centres unmarked) [DMPS, 2,3-dimercapto-1-propanesulfonic acid] | prevents unfolding |  |  |  |  | not able to restore chemosensitivity substantially | almost completely restored; also recorded: reversed chemoresistance completely | Restoration of sensitivity to doxorubicin (reversal of metal-induced chemoresistance) (Beas-2B cells; Beas2B cells primed with 1:128 and 1:256 metals, DMPS 150 μM, FIG. 3A): completely restored; Reversal of metal-induced chemoresistance to doxorubicin (MCF7 breast cancer cells): reversed the chemoresistance completely; Reversal of metal-induced chemoresistance to doxorubicin (A549 lung cancer cells): reversed the chemoresistance completely; Metal induced chemoresistance and its reversal by chelator (A549 p53 KO cells): less pronounced than in native A549 cells; Reversal of metal-induced chemoresistance to doxorubicin (H2170 cells): only partially reversed
4 | O=C(O)CN(CCN(CC(=O)O)CC(=O)O)CC(=O)O [EDTA, ethylenediaminetetraacetic acid] |  |  |  |  | clearly able to refold some of the p53 | not able to restore chemosensitivity substantially | able to restore chemosensitivity although not to the extent as seen for DMPS; also recorded: reversed the resistance only partially | 
5 | COc1cccc2c1C(=O)c1c(O)c3c(c(O)c1C2=O)C[C@@](O)(C(=O)CO)C[C@@H]3O[C@H]1C[C@H](N)[C@H](O)[C@H](C)O1 [doxorubicin] |  |  |  |  |  |  |  | IC50 of doxorubicin in metal-loaded cells relative to cells without added metals (Beas-2B cells; Beas-2B loaded with metals (1:128), FIG. 6): more than 10 times; IC50 of doxorubicin (Beas-2B cells; Beas-2B without added metals, FIG. 6): low
